Results published in PMC12206033, “Selective inhibition of TRPV3 channel by natural rosmarinic acid and its analogs for alleviation of skin lesions through downregulation of NF-κB pathway” (The Journal of Biological Chemistry, 2025).
Positions count from the first letter of the chain named.

Columns and labels:
[1] = biological target: T1, TRPV3 T665A (Homo sapiens, UniProt Q8NET8, T665A); experiment: whole-cell patch-clamp of hTRPV3 T665A mutant currents; type: cell-based; details: ROSA 100 μM; 2-APB; read-out: inhibition of macroscopic hTRPV3 T665A currents
T1 construct: expressed in transfected cells; host or cells: HEK293T
T1 sequence (Q8NET8 1-790 T665A): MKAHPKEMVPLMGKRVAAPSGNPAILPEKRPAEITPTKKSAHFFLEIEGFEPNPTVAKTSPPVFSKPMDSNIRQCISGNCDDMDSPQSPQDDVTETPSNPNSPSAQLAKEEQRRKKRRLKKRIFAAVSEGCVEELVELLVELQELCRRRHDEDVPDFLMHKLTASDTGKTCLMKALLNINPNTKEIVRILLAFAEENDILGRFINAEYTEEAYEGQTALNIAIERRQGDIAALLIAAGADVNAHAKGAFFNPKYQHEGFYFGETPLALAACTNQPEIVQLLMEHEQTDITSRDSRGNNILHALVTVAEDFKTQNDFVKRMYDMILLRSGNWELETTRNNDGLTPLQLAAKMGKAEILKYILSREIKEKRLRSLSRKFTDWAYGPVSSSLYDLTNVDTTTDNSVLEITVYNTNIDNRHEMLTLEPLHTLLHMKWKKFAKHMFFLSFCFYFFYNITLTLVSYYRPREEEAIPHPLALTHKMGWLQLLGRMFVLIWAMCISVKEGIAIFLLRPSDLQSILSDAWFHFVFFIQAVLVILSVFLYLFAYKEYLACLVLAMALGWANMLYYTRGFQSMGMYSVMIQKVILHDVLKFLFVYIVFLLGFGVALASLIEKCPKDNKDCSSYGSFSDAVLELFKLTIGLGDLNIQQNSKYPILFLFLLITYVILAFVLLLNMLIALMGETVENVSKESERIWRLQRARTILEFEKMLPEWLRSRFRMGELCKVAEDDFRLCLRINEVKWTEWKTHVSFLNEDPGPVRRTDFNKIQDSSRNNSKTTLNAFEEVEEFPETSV
Procedure: (§1) HEK293T cell line was obtained from the Cell Resource Center, Peking Union Medical College. HEK293T cells were maintained in Dulbecco’s modified Eagle’s medium (DMEM, Gibco) supplemented with 10% fetal bovine serum at 37 °C with 5% CO2. […] The next day, determine the plasmid transfection status by observing green fluorescence based on expression of enhanced GFP as an indicator. […] When conducting experiments on HEK293T cells transfected with G573S point mutant TRPV3 plasmid, we replaced culture medium with or without compounds after 4 h of transfection and then observed green fluorescence of HEK293T cell after 10 h. As for the relative fluorescence intensity, we convert the image to 8 bit grayscale using ImageJ (Https://imagej.net/software/fiji/downloads) and set an appropriate threshold value to reduce background noise and enhance the image contrast.
(§2) All patch-clamp recordings were conducted 16 to 24 h after transfection using an EPC10 amplifier powered by PatchMaster software (HEKA) (https://www.heka.com/downloads/downloads_main.html#down_patchmaster) at room temperature. […] Currents were recorded at a potential ramp from −100 mV to +100 mV for 1000 ms with 1000-ms intervals (for whole-cell recordings) or a persistent potential of −60 mV (inside-out patch recordings). […]

[2] = biological target: T2, TRPV3 T636A (Homo sapiens, UniProt Q8NET8, T636A); experiment: single-channel inside-out patch recordings of TRPV3 T636A mutant; type: cell-based; details: ROSA 100 μM co-applied with 2-APB 50 μM; n = 4
T2 construct: expressed in transfected cells; host or cells: HEK293T
T2 sequence (Q8NET8 1-790 T636A): T1 sequence (Q8NET8 1-790 T665A) with T636A, A665T
Procedure: as §1, §2

O=C(/C=C/c1ccc(O)c(O)c1)O[C@H](Cc1ccc(O)c(O)c1)C(=O)O [ROSA, rosmarinic acid]
inhibition at 100 µM [1]: 19.1% | single-channel open probability, T636A mutant [2]: 0.67
